Experimental data as given in PubChem BioAssay (NCI).
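Growth conditions: 96-well plates. Treatment: test compound, 48 hours, 5 concentrations. Analysis: linear interpolation between bracketing concentrations; unreached endpoints set to highest concentration. Abbreviation: GI50, concentration required for 50% inhibition of growth. TGI: total growth inhibition.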

What was measured:
Assay in all cases: NCI anticancer screen, dose series, 48 h
MOLT-4 leukemia = system: MOLT-4 leukemia
HL-60(TB) leukemia = system: HL-60(TB) leukemia
OVCAR-5 ovarian = system: OVCAR-5 ovarian
MCF7 breast = system: MCF7 breast
HCT-116 colon = system: HCT-116 colon
UACC-257 melanoma = system: UACC-257 melanoma
NCI-H460 lung = system: NCI-H460 lung
SW-620 colon = system: SW-620 colon
SNB-75 CNS = system: SNB-75 CNS
SF-539 CNS = system: SF-539 CNS

Row | Structure (SMILES) | GI50 (MOLT-4 leukemia) [µM] | TGI (MOLT-4 leukemia) [µM] | GI50 (HL-60(TB) leukemia) [µM] | TGI (HL-60(TB) leukemia) [µM] | GI50 (OVCAR-5 ovarian) [µM] | TGI (OVCAR-5 ovarian) [µM] | GI50 (MCF7 breast) [µM] | TGI (MCF7 breast) [µM] | GI50 (HCT-116 colon) [µM] | TGI (HCT-116 colon) [µM] | GI50 (UACC-257 melanoma) [µM] | TGI (UACC-257 melanoma) [µM] | GI50 (NCI-H460 lung) [µM] | TGI (NCI-H460 lung) [µM] | TGI (SW-620 colon) [µM] | GI50 (SNB-75 CNS) [µM] | TGI (SNB-75 CNS) [µM] | TGI (SF-539 CNS) [µM] | GI50 (SW-620 colon) [µM] | GI50 (SF-539 CNS) [µM]
1 | COc1cccc2c1C(=O)c1c(O)c3c(c(O)c1C2=O)C[C@@](O)(C(=O)CO)C[C@@H]3O[C@H]1C[C@H](N)[C@@H](O)[C@H](C)O1 | 0.0326 | 0.285 | 0.145 | 1.01 | 1.27 | 13 | 0.0247 | 14 | 0.112 | 5.17 | 0.431 | 1.82 | 0.0231 | 17.1 | 7.61 | 0.084 | 0.634 |  |  | 
2 | O=C1CCCC(=O)N1CCc1c[nH]c2ccccc12 |  | > 100 |  | > 100 |  | > 100 |  |  |  | > 100 |  | > 100 |  | > 100 | > 100 |  | > 100 | > 100 |  | 
3 | COc1cc(/C=N/NC(=O)c2cnn3c2NC(c2ccccc2)C3)ccc1Oc1ccccc1 (configuration not stated) | 1.99 | 20.4 |  |  | 2.34 | 11.9 | 0.436 | 10.2 |  |  | 2.91 | 15.6 | 0.875 | 2.83 | 10.1 | 1.3 | 3.41 | 2.51 | 0.868 | 1.03
4 | COc1cc(C(O)C(=O)c2nc3ccc([N+](=O)[O-])cc3[nH]c2=O)ccc1O (configuration not stated) |  | > 100 |  | > 100 |  | > 100 |  |  |  | > 100 |  |  |  | > 100 | > 100 |  |  | > 100 |  | 
5 | O=C(c1ccccc1)[C@@H]1C[C@H](Sc2ccccc2)c2cc(Cl)ccc2N1 |  | 60.9 |  |  |  | > 100 |  |  |  | 68.4 |  | 37.4 |  | 91.6 | 59.8 |  | 58.7 | 33.5 |  | 
6 | Cc1ccc([N+](=O)[O-])cc1NC(=O)c1cccc([N+](=O)[O-])c1O |  | 73 |  | 34.4 |  |  |  |  |  |  |  | 39.5 |  | > 100 | > 100 |  | 43.7 | 54.1 |  | 
7 | C/C=C1/CCC2c3[nH]c4ccccc4c3CCN2C1 (configuration not stated) |  | > 100 |  | > 100 |  | > 100 |  |  |  | > 100 |  | > 100 |  | > 100 | > 100 |  | > 100 | > 100 |  | 
8 | CCCC/C=C1\CCC(C)(CN(C)C)C1=O (configuration not stated) |  | > 100 |  | > 100 |  | > 100 |  |  |  | > 100 |  | > 100 |  | > 100 | > 100 |  |  | > 100 |  | 
9 | Cc1cc2[nH]c(=O)c3c4ccccc4cn3c2cc1C | 5.68 | 19.4 |  |  | 13.8 | 27.4 | 11.8 | > 100 | 1.58 | 3.13 | 20.2 | 35.9 | 4.43 | 20.3 | 33.2 | 15.5 | 30.4 | 27 | 3.83 | 11.2
10 | COC(=O)[C@]12CC=C3O[C@@H]4OC5(CCCCC5)O[C@@H]4C3[C@@H]1C(=O)CCC2=O (some centres not stated) |  | > 100 |  | > 100 |  | > 100 |  |  |  | > 100 |  | > 100 |  | > 100 | > 100 |  | > 100 |  |  | 
